Calls of active or inactive are those of the source. No cut-off for these calls is given here.
Columns and labels:
[1] = biological target: T1, Bromodomain testis-specific protein (Homo sapiens, UniProt Q58F21); assay: Binding affinity to N-terminal hexa histidine-tagged human BRDT BD1 extracted from Escherichia coli BL21 (DE3) cells assessed as inhibition constant incubated for 1 hrs by fluorescence polarization assay
[2] = biological target: T2, Bromodomain-containing protein 4 (Homo sapiens, UniProt O60885); assay: Binding affinity to N-terminal hexa histidine-tagged human BRD4 BD1 extracted from Escherichia coli BL21 (DE3) cells assessed as inhibition constant incubated for 1 hrs by fluorescence polarization assay
[3] = biological target: T1, Bromodomain testis-specific protein; details: dose 100.0 µM, time 30.0 min
[4] = biological target: T1, Bromodomain testis-specific protein; assay: Binding affinity to BRDT BD2 (unknown origin) at W293 residue
[5] = biological target: T1, Bromodomain testis-specific protein; details: dose 100.0 µM, time 30.0 min; remark: listed apart in the source
[6] = biological target: T1, Bromodomain testis-specific protein; assay: Binding affinity to BRDT BD2 (unknown origin) assessed as dissociation constant by BROMOscan analysis
[7] = biological target: T1, Bromodomain testis-specific protein; assay: Binding affinity to BRDT BD1 (unknown origin) assessed as dissociation constant by BROMOscan analysis
[8] = biological target: T2, Bromodomain-containing protein 4; assay: Binding affinity to BRD4 BD2 (unknown origin) assessed as dissociation constant by BROMOscan analysis
[9] = biological target: T2, Bromodomain-containing protein 4; assay: Binding affinity to BRD4 BD1 (unknown origin) assessed as dissociation constant by BROMOscan analysis
[10] = test system: MM1.S; assay: Downregulation of c-MYC expression in human MM1.S cells measured after 6 hrs by Western blotting analysis; type: functional, cell-based; details: dose 0.1-10 µM

SMILES: CCn1c2c(c(=O)[nH]c1=O)C1C(=C(C)N2)C(=O)OCc2ccccc2OCCCOc2cc1ccc2C (stereo not drawn)
- Ki [1]: 12000 nM

SMILES: CCn1c2c(c(=O)[nH]c1=O)C1C(=C(C)N2)C(=O)NCc2ccccc2OCCCOc2ccccc21 (stereo not drawn)
- Ki [1]: > 3800 nM
- Ki [2]: > 3800 nM

SMILES: CCn1c2c(c(=O)[nH]c1=O)C1C(=C(C)N2)C(=O)OCc2cccc(c2)OCCCOc2cc1ccc2C (stereo not drawn)
- Ki [1]: > 3800 nM
- Ki [2]: > 3800 nM

SMILES: CCn1c2c(c(=O)[nH]c1=O)C1C(=C(C)N2)C(=O)OCc2ccccc2OCCCCOc2ccccc21 (stereo not drawn)
- Ki [1]: 1900 nM

SMILES: CCn1c2c(c(=O)[nH]c1=O)C1C(=C(C)N2)C(=O)OCCCOc2ccccc21 (stereo not drawn)
- Ki [1]: 9200 nM

SMILES: CCn1c2c(c(=O)[nH]c1=O)C1C(=C(C)N2)C(=O)OCc2ccccc2OCCOc2ccccc21 (stereo not drawn)
- Ki [1]: 5300 nM

SMILES: CCn1c2c(c(=O)[nH]c1=O)C1C(=C(C)N2)C(=O)OCc2ccccc2OCCCOc2ccccc21 (stereo not drawn)
- ΔTm [3]: 13 °C
- Activity [4]: Active
- ΔTm [5]: 2.8 °C
- Ki [1]: 1100 nM

SMILES: CCn1c2c(c(=O)[nH]c1=O)C1C(=C(C)N2)C(=O)OCc2ccccc2OCCOc2cc1ccc2C (stereo not drawn)
- Ki [1]: > 3800 nM

SMILES: CCn1c2c(c(=O)[nH]c1=O)C1C(=C(C)N2)C(=O)OCc2ccccc2OCCCOc2cc(C)ccc21 (stereo not drawn)
- Ki [1]: 1300 nM

SMILES: CCn1c2c(c(=O)[nH]c1=O)C1C(=C(C)N2)C(=O)OCCCOc2cc(C)ccc21 (stereo not drawn)
- Ki [1]: 8100 nM

SMILES: CCn1c2c(c(=O)[nH]c1=O)C1C(=C(C)N2)C(=O)OCCCCOc2ccccc21 (stereo not drawn)
- Ki [1]: 11000 nM

SMILES: CCn1c2c(c(=O)[nH]c1=O)C1C(=C(C)N2)C(=O)OCCCCOc2cc(C)ccc21 (stereo not drawn)
- Ki [1]: 1700 nM

SMILES: CCn1c2c(c(=O)[nH]c1=O)C(c1ccc(C)cc1)C(C(=O)OCc1ccccc1)=C(C)N2 (stereo not drawn)
- Kd [6]: 67 nM
- Kd [7]: 770 nM
- Kd [8]: 65 nM
- Ki [1]: 40 nM
- Ki [2]: 150 nM
- Kd [9]: 380 nM

SMILES: CCn1c2c(c(=O)[nH]c1=O)C1C(=C(C)N2)C(=O)OCc2ccccc2OCCOc2cc(C)ccc21 (stereo not drawn)
- ΔTm [3]: 8.9 °C
- ΔTm [5]: 3.4 °C
- Activity [10]: Dose-dependent-effect

SMILES: Cc1sc2c(c1C)C(c1ccc(Cl)cc1)=N[C@@H](CC(=O)OC(C)(C)C)c1nnc(C)n1-2
- Activity [10]: Dose-dependent-effect

SMILES: CCn1c2c(c(=O)[nH]c1=O)C1C(=C(C)N2)C(=O)OCc2ccccc2OCCOc2cccc1c2 (stereo not drawn)
- Ki [1]: > 3800 nM

Source: ChEMBL document CHEMBL6177957, “Macrocyclic dihydropyridine analogs as pan-BET BD2-preferred inhibitors” (Eur J Med Chem, 2025)
